Series [1] addresses T1, tetrameric channel (four-helix bundle M2GlyR) (Homo sapiens, UniProt P23415).
T1 construct: four identical M2GlyR peptide units were tethered to a 9-amino acid carrier template to form a four-helix bundle protein; 9-amino acid carrier template (tethers four peptide units); host or cells: synthetic peptide construct reconstituted in lipid bilayers
The following applies: cited from earlier work.

Another series relates to MDCK monolayers. In words: Transepithelial electrical resistance (RTE) / conductance (gTE) across MDCK monolayers. The class given is cell-based, canine. The following applies: for effect on transepithelial electrical resistance: upon onset of channel activity. The protocol: (§1) Transepithelial ion transport was evaluated in a modified Ussing chamber (Model DCV9, Navicyte, San Diego, Calif.). The Ussing chamber's fluid resistance compensation was completed in Ringer solution (composition (in mM) was 120 NaCl, 25 NaHCO3 3.3 KH2HPO4, 0.8 K2HPO4, 1.2 MgCl2, 1.2 CaCl2). For electrical measurements cell monolayers were bathed in Ringer solution maintained at 37° C. and continuously bubbled with 5% CO2:95% O2. The transepithelial membrane potential (Vte) was clamped to zero and the transepithelial short circuit current (Isc), an indicator of net ion transport, was measured continuously with a voltage clamp apparatus (Model 558C, University of Iowa, Department of Bioengineering, Iowa City, Iowa). Data were digitally acquired at 1 Hz with a Macintosh computer (Apple Computer, Cuppertino, Calif.) using Aqknowledge software (ver. 3.2.6, BIOPAC Systems, Santa Barbara, Calif.) with an MP100A-CE interface.
MDCK cell monolayers (in the presence of 1-EBIO to maximize basolateral membrane K^+ conductance) were exposed on the apical aspect to various concentrations of selected peptides as indicated.
In this experiment, the MDCK monolayers were initially incubated with 60 μM of SEQ ID No. 27. When the residual resistance reached approximately 10% of the starting value, the peptide was removed by aspiration and followed by the addition of pre-warmed Ringer solution. This solution was subsequently removed and replaced an additional five times over the next 2 minutes. In this figure, the solid central line represents the measured current at zero mV and the vertical deflections represent the current recorded during periodic 1 mV bipolar pulses. Pulse amplitude is inversely proportional to RTE in accordance with Ohm's law.
Additional experiments have been conducted to test for complete reversibility of peptide-induced changes in RTE. Monolayers were exposed to peptide (60 μM) in an Ussing chamber for ˜20 minutes to document decreases in RTE, recovered and returned to the cell culture incubator for two to five days with the apical and basolateral media refreshed daily before subsequent assessment of basal RTE and responsiveness to peptide. In the previous example, the return of RTE was only followed for hours. In this example, the restoration of RTE was measured over days to determine the minimum time require for full recovery.
Electrical measurements. Transepithelial ion transport was evaluated in modified Ussing chambers (Model DCV9; Navicyte, San Diego, Calif.). For typical electrical measurements of ion flux, cells were bathed in symmetrical Ringer solution (composition in mM: 120 NaCl, 25 NaHCO3, 3.3 KH2HPO4, 0.8 K2HPO4, 1.2 MgCl2, 1.2 CaCl 2; 290±2 mOsmol). The diffusion chambers were maintained at 37° C. and continuously bubbled with 5% CO2/95% O2 to maintain pH, provide aeration and mix the fluid in the chambers. The transepithelial potential (VTE) was clamped to zero, and ISC measured continuously with a voltage-clamp apparatus (Model 558C, University of Iowa, Department of Bioengineering, Iowa City, Iowa). Data were acquired at 1 Hz with a Macintosh computer (Apple Computer, Cuppertino, Calif.) using Aqknowledge software (ver. 3.2.6; BIOPAC Systems, Santa Barbara, Calif.) with an MP100A-CE interface. gTE was determined by exposing the epithelia to a 5 second 1 mV bipolar pulse at 100 second intervals. The recorded current deflections were used with Ohms law to calculate gTE: […]

Series [2] is described as follows: Chemical cross-linking (BS3) and SDS-PAGE, oligomeric state of peptide in solution. The class given is physicochemical. The following applies: SDS-PAGE. The procedure:
Chemical cross-linking: In order to visualize the oligomeric state of the peptide in solution a chemical cross-linking protocol was developed. Calculated amounts of each peptide were weighted out and dissolved in 1 mL of distilled water to make 1 mM stock solutions. A 100 mM stock solution of the chemical crosslinking reagent Bis[Sulfosuccinimidyl]suberate, BS^3, (Pierce Chemical Co., Rockford, Ill.) was prepared in dimethyl sulfoxide (DMSO). […] Sample were allowed to sit at room temperature for 15 minutes. 1-6 μL of 100 mM BS^3 was then added to the previously prepared peptide such that the crosslinking reagent was present in 20-fold excess. The final volume for each reaction was 100 μL. […] Each sample was then vacuum dried. Later dry samples were re-dissolved in 60 μL of distilled water along with 60 μL of a 2×-tricine SDS sample buffer (Novex, San Diego). All samples were then boiled at 100° C. for 5 minutes. 5 μL aliquots of each SDS boiled sample was then loaded into separate lanes of pre-cast, 1.0 mm, 10 well, 10-20% tricine gels (Novex, San Diego). Pre-made Novex tricine-SDS buffer was used in the electrophoresis. The reference well contained 1 μL of MultiMark® multi-colored molecular weight standard (Novex, San Diego). The electrophoresis was carried out at a constant 110 Volts for 90 minutes. […]

Another series deals with MDCK cells. The class given is cell-based, canine.
Source text: Cell culture: MDCK cells were a generous gift of Dr. Lawrence Sullivan (Kansas University Medical Center, Kansas City, Kans.). T84 cells were obtained from Dr. Daniel Devor (University of Pittsburgh, Pittsburgh, Pa.). MDCK and T84 cells were maintained with similar culture procedures. The culture medium was a 1:1 mixture of DMEM and Ham's F-12 (Gibco BRL, Grand Island, N.Y.) supplemented with 5% heat inactivated fetal bovine serum (BioWhittaker, Walkersville, Md.), and 1% penicillin and streptomycin (Gibco BRL). Cells were grown in plastic culture flasks in a humidified environment with 5% CO2 at 37° C. and passaged every 5-7 days. For Ussing chamber experiments, cells were plated on 1.13 cm^2 permeable supports (Snapwell™, Costar®, Cambridge, Mass.) at a density of approximately 1×10^6 cells/well and incubated in DMEM/F-12 supplemented with FBS and antibiotics (changed every other day) for 2-3 weeks prior to being mounted in modified Ussing flux chambers.
To form monolayers, the cells were plated onto the upper surface of a permeable membrane that forms the bottom of a plastic well. Two types were used. One was the Transwell™ insert (Costar®, Cambridge, Mass.) supported in a six-well tissue culture plate and the other type was the Snapwell™ (Costar®, Cambridge, Mass.). During incubation, the medium was replaced at 48-72 hour intervals. Confluent monolayers formed within 72 hours. Experiments were performed on the monolayers 6-9 days after the initial plating. Net fluid secretion responses were optimal after six days.
Solutions: Ringer solution was made fresh daily. The final concentration (in mM) was 120 NaCl, 25 NaHCO3 3.3 KH2HPO4, 0.8 K2HPO4, 1.2 MgCl2, 1.2 CaCl2, (290±2 mOsmol). All components of the Ringer solution were from Sigma (St. Louis, Mo.).
as §1, with “Epithelial electrical measurements: Transepithelial” for “Transepithelial”, “(see below).” for “(composition (in mM) was 120 NaCl, 25 NaHCO3 3.3 KH2HPO4, 0.8 K2HPO4, 1.2 MgCl2, 1.2 CaCl2).”
as §1
MDCK cell monolayers (in the presence of 1-EBIO to maximize basolateral membrane K^+ conductance) were exposed on the apical aspect to escelating peptide concentrations. Maximal change in Isc (relative to the Isc prior to peptide exposure) was recorded following each increment in apical peptide concentration. […]

Series [3] in a line: Circular dichroism in 20% TFE. The class given is physicochemical. The settings on record: water containing 20% TFE. The procedure: Circular dichroism: Circular dichroism spectra were recorded on a Jasco Model J-720 spectropolarimeter in the range 180-250 nm using quartz cuvettes with a 0.2 mm pathlength. Eight scans recorded at a rate of 20 nm/minute were averaged and corrected for contributions of buffer (10 mM HEPES, pH 7.2). […] The molar ellipticity was calculated using d-10-camphorsulfonic acid (290.5=7783° cm2 dmol 1) as a reference (Chen, G. C., and J. T. Yang. 1977. Two point calibration of spectropolarimeter with d-10-camphorsulfonic acid. Anal. Lett. 10:1195-1207.). The line shapes of the spectra were analyzed using a least-square fitting routine by comparison to polylysine standards representing 100%-helix, -turn, or random coil, respectively.
(In general: CD spectra are sensitive to the conformation of chiral molecules.)

For series [4] the following is noted: cited from earlier work.

The values that follow come from US8163870B2, “Channel forming peptides” (Kansas State University Research Foundation, priority 2000, dated 2012).

Several values for one entry are separate records, joined by “and”; a condition that tells them apart may be missing. Equal entries are not always repeated. Where two headings read alike, the source gives them in different places. Non-standard residues stand in square brackets, D forms with d. No end group written: not given here.

In the case of `O=C(O)c1c2ccccc2cc2ccccc12` [9-AC, 9-anthracene carboxylic acid], the “block of the tetrameric channel” value in series [1] is “blocked”.

Regarding `O=C(O)c1cccnc1Nc1cccc(C(F)(F)F)c1` [NFA, niflumic acid], the “block of the tetrameric channel” value in series [1] is given as “blocked”.

Regarding `Cc1cccc(C)c1NC(=O)C[N+](C)(C)C` [QX-222], in series [1], the “block of the tetrameric channel” value is on record as “not blocked”.

“KKKKAARVGL GITTVWVTTI GLGVRAA (KKKKAARVGLGITTVWVTTIGLGVRAA; Modified Homo sapiens) [SEQ ID No. 9]”: in the series on MDCK monolayers, the “effect on transepithelial electrical resistance” value is on record as “dramatic decrease in transepithelial electrical resistance”. The “aggregation state in solution” value in series [2] was “remained in monomer form”. Moreover, the “Activity profile in MDCK cells” value was 20.0 μA/cm2 in the series with MDCK cells (peptide at 100 μM) and 20.0 at 100 μM μA/cm2 with MDCK cells (peptide at 100 μM, listed as 9).

In the case of “KKKKPARVGL GITTVLVTTI GLGVRAA (KKKKPARVGLGITTVLVTTIGLGVRAA; Modified Homo sapiens) [SEQ ID No. 26]”, the “effect on transepithelial electrical resistance” value in the series with MDCK monolayers was “dramatic decrease in transepithelial electrical resistance”. In the series on MDCK cells (MDCK monolayers), the “peptide concentration producing maximal effect on Isc (Imax)” value worked out at 100 µM. In addition, in the series on MDCK cells (peptide at 100 μM), the “Activity profile in MDCK cells” value was determined as 25.7 at 100 μM μA/cm2. Besides, the “secondary structure by CD” value in series [3] was “helical structure”.

With “KKKKPARVGLGITTVLTMTTQW (Modified Homo sapiens) [SEQ ID No. 54]”, in the series with MDCK monolayers, the “effect on transepithelial electrical resistance” value is recorded as “dramatic decrease in transepithelial electrical resistance”.

For “KKKKPARVGLGITTVLTMTTRW (Modified Homo sapiens) [SEQ ID No. 55]”, the entries for the “decrease in RTE” value in the series on MDCK monolayers (100 μM) and with MDCK monolayers (200 μM) were approximately 70% and approximately 90%, respectively. Further, the “effect on transepithelial electrical resistance” value in the series on MDCK monolayers is reported as “dramatic decrease in transepithelial electrical resistance”.

Take “KKKKPARVGLGITTVLVTTIGLGVRAP [SEQ ID No. 18, KKKKPARVGL GITTVLVTTI GLGVRAP]”: the “effect on isolated cells” value in the series with isolated cells is on record as “not harmful to isolated cells”. In addition, the EC50 in the series with MDCK cells (MDCK monolayers, modified Hill equation fit, read-out: half maximal effect on Isc (EC50 / K1/2)) stood at 50 µM.

“KKKKVTTIGL GVRAPLVTTI GLGVRAA (KKKKVTTIGLGVRAPLVTTIGLGVRAA; Modified Homo sapiens) [SEQ ID No. 5]”: the “Activity profile in MDCK cells” value with MDCK cells (peptide at 500 μM) was less than 1.0 at 500 μM μA/cm2. In addition, the “secondary structure by CD” value in series [3] is on record as “beta-sheet”.

For “PARVGLGITT VLTMTTQSSG SRA (PARVGLGITTVLTMTTQSSGSRA; listed as Homo sapiens) [SEQ ID No. 1]”, in series [4] (5-fold KCl concentration gradient), the “transference number for anions” value is listed as 0.85. Moreover, the single-channel conductance in series [4] (symmetric 0.5 M KCl, listed as M2GlyR) is 25 pS and 49 pS. For the same compound, in the series on MDCK cells (peptide at 500 μM), the “Activity profile in MDCK cells” value is reported as 1.5 at 500 μM μA/cm2.

“PARVGLGITTVLVTTIGLGVRAPKKKK [SEQ ID No. 19, PARVGLGITT VLVTTIGLGV RAPKKKK]”: in the series on isolated cells, the “effect on isolated cells” value is given as “cytotoxic effects”.

In the case of “VTTIGLGVRA A (VTTIGLGVRAA; Modified Homo sapiens) [SEQ ID No. 53]”, in the series on MDCK cells (peptide at 500 μM), the “Activity profile in MDCK cells” value is listed as less than 1.0 at 500 μM μA/cm2.

Turning to “VTTIGLGVRA P (VTTIGLGVRAP; Modified Homo sapiens) [SEQ ID No. 50]”, the “Activity profile in MDCK cells” value in the series on MDCK cells (peptide at 500 μM) was less than 1.0 at 500 μM μA/cm2.

Consider “all-D amino acid form of SEQ ID NO. 27: all-D amino acid form of SEQ ID NO. 27 ([dK][dK][dK][dK][dA][dA][dR][dV]G[dL]G[dI][dT][dT][dV][dL][dV][dT][dT][dI]G[dL]G[dV][dR][dA][dA])”, for which the “concentration triggering conductance increases” value in the series with MDCK monolayers was 40 µM.
